PMC9921063 (Molecules, 2023)

Legend:
TyrE = TyrE (Agaricus bisporus, UniProt C7FF04); format: biochemical
[1] = DPPH radical scavenging activity; details: antiradical scavenging; mean ± S.D.
Protocol: (§1) Three methods were used for the assessing antioxidant properties of the selected compounds, which are 2.2-diphenyl-1-picrylhydrazyl (DPPH), 2.2’-azino-bis (3-ethylbenzothiazoline-6-sulphonic acid) (ABTS) radicals scavenging, and β-carotene linoleic acid bleaching assay. […] The control compound was butylated hydroxytoluene (BHT), which is a potent antioxidant.
Briefly, various amounts of produced compounds were diluted with ultrapure water after being dissolved in dimethylsulfoxide (DMSO)/water (1/9; v/v) (1, 0.5, 0.250, 0.125, 0.0625, 0.03125 mg mL^−1). The samples were then combined with […] of a 4% (w/v) solution of the DPPH radical in ethanol. The combination was incubated for 30 min. at room temperature and in the dark. Spectrophotometric analysis was used to calculate the scavenging capacity by comparing the decrease in absorbance at 517 nm to a blank.
(§2) All the assays used for antioxidant determination (DPPH, ABTS, and β-carotene bleaching assay) were performed simultaneously three times in the same conditions. The results obtained in µM mL^−1 average of the three experiments.

[2] = ABTS radical scavenging assay; details: antiradical scavenging; mean ± S.D.
Protocol: as §1
ABTS radical scavenging activity was conducted by referring to the method of Re et al..
as §2

[3] = β-Carotene linoleic acid bleaching assay; details: β-carotene bleaching test; mean ± S.D.
Protocol: as §1
β-Carotene bleaching test was conducted following the method described by Pratt’s.
as §2

[4] = test system: colon carcinoma cells (HCT-116); assay: In vitro anticancer proliferation (cytotoxicity) assay; format: cell-based, human; details: for IC50 HCT-116: mean ± S.D.
Protocol: (§3) The selected compound was investigated for its cytotoxic properties against HCT-116 and HepG-2 (cancer cell lines of ATCC, Rockville, MD, USA). Vinblastine was applied as reference drug. The assay was conducted according to the methods described by Mossman and our recently published data.

[5] = test system: hepatocellular carcinoma cell lines (HepG-2); assay: as above; format: cell-based, human; details: hepatocellular carcinoma cells, mean ± S.D.
Protocol: as §3

Vero cell = assay: In vitro cytotoxicity assay, MTT; format: cell-based; details: mean ± S.D.
Protocol: (§4) MTT colorimetric technique was carried out for cytotoxicity evaluation according to the methods mentioned in our previously published article. An amount of 96 well plates with complete were used for the culture of the cells. FLUOstar OPTIMA spectrophotometer was applied for colorimetric analysis and in vitro evaluation.

L. major amastigotes = assay: Antileishmanial assay, amastigotes; format: cell-based, Leishmania major; details: mean ± S.D.
Protocol: (§5) This assay was carried out according to the methods mentioned in our previously published article. L. major promastigotes were isolated locally from an indoor patient in 2016, liquid nitrogen was used for the preservation of the parasites, and BALB/c mice were used for the maintenance of the parasites and production of L. major amastigotes. Phenol red-free RPMI 1640 medium (Invitrogen, USA) with 10% FBS was used for the culture and in vitro evaluation, while amphotericin B (AmB) was used as reference drug.

L. major promastigotes = assay: Antileishmanial assay, promastigotes; format: cell-based, Leishmania major; details: mean ± S.D.
Protocol: as §5

[6] = test system: T. gondii tachyzoites RH strain; assay: Antitoxoplasmal assay; format: cell-based, Toxoplasma gondii; details: mean ± S.D.
Protocol: This assay was carried out according to the methods mentioned in our previously published article. Vero cells line (ATCC® CCL81™, USA) were used for the serial passage and cultivation of T. gondii tachyzoites RH strain, complete RPMI 1640 medium with heat-inactivated 10% FBS was used for the culture and in vitro evaluation, while atovaquone (ATO) was used as reference drug. The results were expressed in IC50 of three independent readings, followed by the selectivity index (SI) calculation by dividing CC50 over IC50 of the same compound [56].

C. albicans [7] = assay: Agar well diffusion, inhibition zone; format: cell-based
Protocol: (§6) Microorganisms, media and growth conditions, agar well diffusion method for inhibition zone determination (IZ) and minimum inhibitory concentration (MIC) were performed according to the literature work.
(§7) The synthesized compounds were examined in vitro for their antimicrobial activity against Six standard microorganisms of ATCC, two Gram positive bacteria S. aureus and Listeria monocytogenes, three Gram negative bacteria Esherichia coli, Pseudomonas aeruginosa and Salmonella typhimurium and the fungus C. albicans. Bacteria were cultured in Luria-Bertani (LB) medium, while Sabouraud agar was used for culturing C. albicans and the assay conducted according to our previous techniques. The results were the average of 3 readings.

S. aureus [8] = assay: Agar well diffusion, inhibition zone; format: cell-based
Protocol: as §6, §7

L. monocytogenes [9] = assay: Agar well diffusion, inhibition zone; format: cell-based, Listeria monocytogenes
Protocol: as §6, §7

E. coli = assay: Agar well diffusion, inhibition zone; format: cell-based, Esherichia coli
Protocol: as §6, §7

P. aeruginosa = assay: Agar well diffusion, inhibition zone; format: cell-based, Pseudomonas aeruginosa
Protocol: as §6, §7

S. typhimurium [10] = assay: Agar well diffusion, inhibition zone; format: cell-based, Salmonella typhimurium
Protocol: as §6, §7

L. monocytogenes [11] = assay: Minimum inhibitory concentration (MIC); format: cell-based, Listeria monocytogenes
Protocol: as §6, §7

C. albicans [12] = assay: Minimum inhibitory concentration (MIC); format: cell-based
Protocol: as §6, §7

S. aureus [13] = assay: Minimum inhibitory concentration (MIC); format: cell-based
Protocol: as §6, §7

S. typhimurium [14] = assay: Minimum inhibitory concentration (MIC); format: cell-based, Salmonella typhimurium
Protocol: as §6, §7

[15] = test system: all examined microorganisms; assay: Antimicrobial activity, summary over all examined microorganisms; format: cell-based
Protocol: as §6, §7

electric eel AChE = electric eel AChE (Electrophorus electricus, UniProt O42275); assay: biochemical; format: biochemical; details: mean ± S.D.
electric eel AChE, sequence (O42275 24-633): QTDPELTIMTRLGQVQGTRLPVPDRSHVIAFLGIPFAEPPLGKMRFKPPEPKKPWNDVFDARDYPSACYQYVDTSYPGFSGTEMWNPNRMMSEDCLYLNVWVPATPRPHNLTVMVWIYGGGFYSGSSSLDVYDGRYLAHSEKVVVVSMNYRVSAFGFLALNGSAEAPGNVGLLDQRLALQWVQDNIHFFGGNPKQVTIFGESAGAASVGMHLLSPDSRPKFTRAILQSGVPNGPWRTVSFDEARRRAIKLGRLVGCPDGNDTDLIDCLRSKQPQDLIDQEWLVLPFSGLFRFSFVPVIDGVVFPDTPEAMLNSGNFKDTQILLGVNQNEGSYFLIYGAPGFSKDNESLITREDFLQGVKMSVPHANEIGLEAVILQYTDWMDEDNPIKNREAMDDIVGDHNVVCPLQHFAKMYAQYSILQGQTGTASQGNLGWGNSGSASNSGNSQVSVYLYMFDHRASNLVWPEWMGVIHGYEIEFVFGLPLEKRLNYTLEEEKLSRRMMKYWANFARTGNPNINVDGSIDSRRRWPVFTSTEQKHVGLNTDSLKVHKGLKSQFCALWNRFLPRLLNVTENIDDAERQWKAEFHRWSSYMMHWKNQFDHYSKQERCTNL
Protocol: According to the Ellman et al. published spectrophotometric method of electric eel AChE [47], AChEI activity was measured. Acetylthiocholine iodide (ATCI) was used as the reaction’s substrate, and the antiacetylcholinesterase activity was measured using 5,5’-Dithiobis-(2-nitrobenzoic acid) (DTNB).

[16] = In vitro cytotoxicity assay, MTT; format: cell-based; details: African green monkey, Vero cells, mean ± S.D., read-out: CC50 Toxicity (Vero Cell)
Protocol: as §4

[17] = against all examined microorganisms

TyrE, sequence (C7FF04 1-392): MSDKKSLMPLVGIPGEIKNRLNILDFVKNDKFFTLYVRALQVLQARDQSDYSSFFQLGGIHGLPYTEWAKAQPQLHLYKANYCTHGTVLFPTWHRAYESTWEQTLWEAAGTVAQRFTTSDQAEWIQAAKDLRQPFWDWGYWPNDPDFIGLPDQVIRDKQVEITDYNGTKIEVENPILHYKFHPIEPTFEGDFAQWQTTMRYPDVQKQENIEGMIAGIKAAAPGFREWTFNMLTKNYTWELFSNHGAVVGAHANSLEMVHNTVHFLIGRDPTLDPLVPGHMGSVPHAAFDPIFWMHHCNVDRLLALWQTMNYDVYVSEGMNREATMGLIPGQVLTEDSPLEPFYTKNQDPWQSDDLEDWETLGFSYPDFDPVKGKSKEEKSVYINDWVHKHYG

| Compound | TyrEI IC50 (TyrE) | DPPH IC50 [1] | ABTS IC50 [2] | β-Carotene IC50 [3] | IC50 HCT-116 [4] | IC50 HepG-2 [5] | CC50 Toxicity (Vero Cell) (Vero cell) | Amastigote IC50 (L. major amastigotes) | Promastigotes IC50 (L. major promastigotes) | Toxoplasma IC50 [6] | other results |
| --- | --- | --- | --- | --- | --- | --- | --- | --- | --- | --- | --- |
| 5,6-Dimethyl-[1,3-(2,3,4,5,6-pentamethyl-2,4,6-trimethyl)-benzimidazol-2-ylidene](p-cymene) ruthenium(II) chloride [Compound 3a] | 50.75 ± 8.3 µM mL^−1 | 61.25 ± 10.3 µM mL^−1 | 41.78 ± 7.3 µM mL^−1 | 401.12 ± 66.5 µM mL^−1 | 4.12 ± 0.6 µM mL^−1 | 9.21 ± 1.3 µM mL^−1 | 1.2 ± 0.3 µM mL^−1 | 2.4 ± 0.4 µM mL^−1 | 0.45 ± 0.07 µM mL^−1 | 1.3 ± 0.2 µM mL^−1 | – |
| 5,6-Dimethyl-[1,3-(4-(tert-butyl)-4-methyl)-benzimidazol-2-ylidene] (p-cymene) ruthenium (II) chloride [Compound 3c] | 38.17 ± 5.5 µM mL^−1 | 65.49 ± 11.2 µM mL^−1 | 45.04 ± 6.6 µM mL^−1 | 374.87 ± 55.7 µM mL^−1 | 8.45 ± 1.2 µM mL^−1 | 12.73 ± 1.8 µM mL^−1 | 1.9 ± 0.4 µM mL^−1 | 4.2 ± 0.8 µM mL^−1 | 0.37 ± 0.06 µM mL^−1 | 1.5 ± 0.3 µM mL^−1 | – |
| 5,6-Dimethyl-[1,3-(3,5)dimethyl-4-methyl)-benzimidazol-2-ylidene](p-cymene) ruthenium(II) chloride [Compound 3d] | 24.95 ± 3.7 µM mL^−1 | 32.18 ± 5.4 µM mL^−1 | 18.17 ± 3.0 µM mL^−1 | 92.25 ± 11.9 µM mL^−1 | 8.45 ± 0.9 µM mL^−1 | 12.75 ± 1.7 µM mL^−1 | 1.8 ± 0.2 µM mL^−1 | 1.4 ± 0.3 µM mL^−1 | 0.32 ± 0.04 µM mL^−1 | 1.4 ± 0.1 µM mL^−1 | Inhibition zone (C. albicans [7]): 27 mm; Inhibition zone (S. aureus [8]): 26 mm; Inhibition zone (L. monocytogenes [9]): 28 mm; Inhibition zone (E. coli): 29 mm; Inhibition zone (P. aeruginosa): 27 mm; Inhibition zone (S. typhimurium [10]): 27 mm; MIC (L. monocytogenes [11]): 3.9 µM mL^−1; MIC (C. albicans [12]): 1.25 µM mL^−1; MIC (S. aureus [13]): 1.95 µM mL^−1; MIC (S. typhimurium [14]): 1.95 µM mL^−1; IZ (inhibition zone) [15, 17]: over 25 mm; MIC (minimum inhibitory concentration) [15, 17]: < 4 µM; Inhibition of the examined indicator organisms ([15]; all of the examined indicator organisms): inhibited |
| 5,6-dimethyl-1,3-bis(2,3,4,5,6-pentamethylbenzyl)-1H-benzo[d]imidazol-3-ium bromide [Compound 2a] | 45.05 ± 7.3 µM mL^−1 | 58.27 ± 7.4 µM mL^−1 | 39.12 ± 5.9 µM mL^−1 | 395.75 ± 51.6 µM mL^−1 | 7.76 ± 1.1 µM mL^−1 | 11.75 ± 2.1 µM mL^−1 | 1.2 ± 0.2 µM mL^−1 | 1.1 ± 0.1 µM mL^−1 | 3.2 ± 0.5 µM mL^−1 | 8.4 ± 1.0 µM mL^−1 | AChEI IC50 (electric eel AChE): 18.38 ± 2.7 µM mL^−1 |
| Cc1ccc(C[n+]2cn(Cc3ccc(C(C)(C)C)cc3)c3cc(C)c(C)cc32)cc1 [Compound 2c, 5,6-dimethyl-1,3-((4-(tert-butyl)-4-methyl-benzyl)-1H-benzo[d]imidazol-3-ium bromide] | – | 70.23 ± 12.0 µM mL^−1 | 51.27 ± 8.6 µM mL^−1 | 348.70 ± 52.1 µM mL^−1 | – | – | – | – | – | – | IC50 (electric eel AChE; read-out: AChEI IC50 (converted)): 51.6 µM; IC50 ([4]; Homo sapiens, HCT-116, mean ± S.D.): 15.4 ± 2.6 µg/mL; IC50 ([5]; Homo sapiens, HepG2): 20.6 ± 3.3 µg/mL; CC50 [16]: 2.9 ± 0.4 µg/mL; IC50 (L. major amastigotes; Leishmania major, read-out: Amastigote IC50): 1.7 ± 0.2 µg/mL; IC50 (L. major promastigotes; Leishmania major): 5.8 ± 0.9 µg/mL; IC50 ([6]; Toxoplasma gondii): 2.1 ± 0.3 µg/mL |
